Measurements: the Kinase Knowledgebase extract (Sharma et al. 2016)

Legend:
EGFR = EGFR (UniProt P00533); settings: for inhibition: concentration not given here
EGFR (murine) [1] = molecular target: EGFR (murine) (UniProt P00533); settings: fibroblast
EGFR (human) [2] = molecular target: EGFR (human) (UniProt P00533); settings: mdv-7
EGFR (murine) [3] = molecular target: EGFR (murine) (UniProt P00533); settings: fibroblast; remark: listed apart in the source
EGFR (human) [4] = molecular target: EGFR (human) (UniProt P00533); settings: a431
EGFR (human) [5] = molecular target: EGFR (human) (UniProt P00533); settings: a549
EGFR (human) [6] = molecular target: EGFR (human) (UniProt P00533); settings: mda231
EGFR (human) [7] = molecular target: EGFR (human) (UniProt P00533); settings: ht-29
EGFR (human) [8] = molecular target: EGFR (human) (UniProt P00533); settings: mda468

Chain of EGFR (P00533 whole entry, looked up): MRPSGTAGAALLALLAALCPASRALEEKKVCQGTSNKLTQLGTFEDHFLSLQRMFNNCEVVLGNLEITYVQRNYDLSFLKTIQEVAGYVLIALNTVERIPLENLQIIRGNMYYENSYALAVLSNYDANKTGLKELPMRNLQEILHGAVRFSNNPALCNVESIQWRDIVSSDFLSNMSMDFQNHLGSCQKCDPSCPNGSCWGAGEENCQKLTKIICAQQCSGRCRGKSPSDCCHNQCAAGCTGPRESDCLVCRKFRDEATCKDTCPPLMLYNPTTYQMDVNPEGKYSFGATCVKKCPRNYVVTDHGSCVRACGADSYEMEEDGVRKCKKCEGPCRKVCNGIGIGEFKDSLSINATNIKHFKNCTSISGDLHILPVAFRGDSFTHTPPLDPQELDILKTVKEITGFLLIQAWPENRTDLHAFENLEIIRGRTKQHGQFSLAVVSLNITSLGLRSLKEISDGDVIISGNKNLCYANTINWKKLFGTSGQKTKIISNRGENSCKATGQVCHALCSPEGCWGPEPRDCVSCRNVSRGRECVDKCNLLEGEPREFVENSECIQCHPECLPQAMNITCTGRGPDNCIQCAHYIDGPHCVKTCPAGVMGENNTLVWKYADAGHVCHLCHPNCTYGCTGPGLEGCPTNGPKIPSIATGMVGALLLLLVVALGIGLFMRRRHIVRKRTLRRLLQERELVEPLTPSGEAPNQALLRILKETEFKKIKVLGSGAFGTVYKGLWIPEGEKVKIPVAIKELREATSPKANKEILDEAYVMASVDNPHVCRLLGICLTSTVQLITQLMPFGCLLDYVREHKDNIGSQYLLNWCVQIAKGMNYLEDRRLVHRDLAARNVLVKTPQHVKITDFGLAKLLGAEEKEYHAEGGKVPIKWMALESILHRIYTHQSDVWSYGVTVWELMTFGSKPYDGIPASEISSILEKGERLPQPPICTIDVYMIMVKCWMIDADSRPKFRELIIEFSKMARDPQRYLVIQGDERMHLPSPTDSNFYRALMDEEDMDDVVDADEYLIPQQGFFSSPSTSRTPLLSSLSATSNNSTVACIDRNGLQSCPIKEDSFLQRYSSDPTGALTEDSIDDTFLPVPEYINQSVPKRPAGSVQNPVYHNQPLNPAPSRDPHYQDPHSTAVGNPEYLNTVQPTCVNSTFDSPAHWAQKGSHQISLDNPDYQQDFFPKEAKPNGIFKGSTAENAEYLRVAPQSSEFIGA
Chain of EGFR (human) (P00533 whole entry, looked up): as above
Chain of EGFR (murine) (P00533 whole entry, looked up): as above

SMILES	inhibition (EGFR) [%]	IC50 (EGFR) [µM]	other results
O=C(CCc1c(S)[nH]c2ccccc12)NCc1ccccc1	43		
NC(=O)CCc1c(S)[nH]c2ccccc12		22	
COC(=O)Cc1c(S)[nH]c2ccccc12	43		
Cn1c(S)c(C(=O)Nc2ccccc2)c2ccccc21		1	IC50 (EGFR (murine) [1]): 2000 nM; IC50 (EGFR (human) [2]): 39 µM; IC50 (EGFR (murine) [3]): 64 µM; IC50 (EGFR (human) [4]): 62 µM; IC50 (EGFR (human) [5]): 30 µM; IC50 (EGFR (human) [6]): 15 µM; IC50 (EGFR (human) [7]): 55 µM; IC50 (EGFR (human) [8]): 43 µM
O=C(O)CCCc1c(S)[nH]c2ccccc12		6.8	
Cn1c(S)c(CCC(=O)O)c2ccccc21		8.5	
Cn1c(S)c(C(=O)c2ccc(C(=O)O)cc2)c2ccccc21		8.7	
Cn1c(S)c(C(=O)Nc2ccccc2)c2cc(Cl)ccc21		9	
COC(=O)CCCc1c(S)n(C)c2ccccc12	2		
CCOC(=O)CCc1c(S)[nH]c2ccccc12	10		
Cn1c(S)c(CCCC(=O)O)c2ccccc21		23	
CCOC(=O)CCc1c(S)n(C)c2ccccc12	3		
O=C(Cc1c(S)[nH]c2ccccc12)NCc1ccccc1		25	
CCOC(=O)Cc1c(S)n(C)c2ccccc12	4		
O=C(O)Cc1c(S)[nH]c2ccccc12		14.9	
O=C(O)CCc1c(S)[nH]c2ccccc12		1.3	
